Measured values reported in patent US9963452B2, “Methods, compounds, and compositions for inhibition of ROS” (AUGUSTA PHARMACEUTICALS INC., priority 2013, dated 2018).

Assays:
[1] = biological target: ROS (Homo sapiens, UniProt P08922); experiment: In vitro ROS enzymatic reaction assay (HTRF, Cisbio); assay type: biochemical; parameters: ROS or EGFR enzyme, 0.008 ng/ul; settings: for inhibition at 5 µM: ROS kinase, compound at 5 uM, read-out: Kinase Inhib. 5 uM (%)
Protocol: The ROS enzymatic reactions were carried out with a high throughput screening platform for phosphor-detection of kinase activity. This platform based on homogeneous time resolved fluorescence (HTRF) technology from Cisbio Bioassays, Inc. (Cisbio). […] The reaction was allowed to proceed for 30 minutes at room temperature. An equal volume of detection buffer was then added to the reaction mix.

[2] = biological target: T1, EGFR (Homo sapiens, UniProt P00533); experiment: In vitro EGFR enzymatic reaction assay (HTRF, Cisbio); assay type: biochemical
T1 construct: ROS or EGFR enzyme, 0.008 ng/ul

[3] = test system: HeLa cervical cancer cell line; experiment: In-vitro cell survival assay (Alamar blue), HeLa; assay type: cell-based; settings: one day after compound addition
Outline: (§1)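 Cells seeded at 2-5×10^3 per well, grown 2 days, then exposed to compound at 100, 10 or 1 uM (0.5% DMSO final) for one day. Alamar blue redox dye read as proliferation/viability, normalized to vehicle wells as percent decrease and converted to EC50.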

[4] = test system: U138 glioblastoma cell line; experiment: In-vitro cell survival assay (Alamar blue), U138; assay type: cell-based; settings: U138, one day after compound addition
Outline: as §1

[5] = test system: U87 glioblastoma cell line; experiment: In-vitro cell survival assay (Alamar blue), U87; assay type: cell-based; settings: U87, one day after compound addition
Outline: as §1

[6] = test system: LN18 glioblastoma cell line; experiment: In-vitro cell survival assay (Alamar blue), LN18; assay type: cell-based; settings: LN18, one day after compound addition
Outline: as §1

[7] = test system: U118 glioblastoma cell line; experiment: In-vitro cell survival assay (Alamar blue), U118; assay type: cell-based; settings: U118, one day after compound addition
Protocol: Five tumor-derived cell lines were treated with the ROS inhibitor compounds and cell survival was monitored to determine the cancer prohibition effects of the compounds. The cell lines included HeLa, a cervical cancer cell line, and four glioblastoma cell lines U138, U87, LN18, and U118. The basic protocol for the in-vitro cell survival assay is the same for all five cell lines. In particular, the cells were seeded in 96-well plates at 2-5×10^3 cells/well (cell line dependent) in culture medium. The cells were grown for 2 days before the compounds were dissolved in DMSO and added to final concentrations of 100 uM, 10 uM, or 1 uM (DMSO final concentration 0.5%). The cell culture was then assayed one day after the addition of the compounds. The assay used Alamar blue as a redox-sensitive dye that interrogates mitochondrial fitness of cells, and these assays provided a readout for cell proliferation and viability. The raw values were normalized to an average of several vehicle control wells and are presented as percent decrease in proliferation/viability, which is converted to half maximal effective concentration (EC50) values.

T1 sequence (P00533 25-1210, species assumed): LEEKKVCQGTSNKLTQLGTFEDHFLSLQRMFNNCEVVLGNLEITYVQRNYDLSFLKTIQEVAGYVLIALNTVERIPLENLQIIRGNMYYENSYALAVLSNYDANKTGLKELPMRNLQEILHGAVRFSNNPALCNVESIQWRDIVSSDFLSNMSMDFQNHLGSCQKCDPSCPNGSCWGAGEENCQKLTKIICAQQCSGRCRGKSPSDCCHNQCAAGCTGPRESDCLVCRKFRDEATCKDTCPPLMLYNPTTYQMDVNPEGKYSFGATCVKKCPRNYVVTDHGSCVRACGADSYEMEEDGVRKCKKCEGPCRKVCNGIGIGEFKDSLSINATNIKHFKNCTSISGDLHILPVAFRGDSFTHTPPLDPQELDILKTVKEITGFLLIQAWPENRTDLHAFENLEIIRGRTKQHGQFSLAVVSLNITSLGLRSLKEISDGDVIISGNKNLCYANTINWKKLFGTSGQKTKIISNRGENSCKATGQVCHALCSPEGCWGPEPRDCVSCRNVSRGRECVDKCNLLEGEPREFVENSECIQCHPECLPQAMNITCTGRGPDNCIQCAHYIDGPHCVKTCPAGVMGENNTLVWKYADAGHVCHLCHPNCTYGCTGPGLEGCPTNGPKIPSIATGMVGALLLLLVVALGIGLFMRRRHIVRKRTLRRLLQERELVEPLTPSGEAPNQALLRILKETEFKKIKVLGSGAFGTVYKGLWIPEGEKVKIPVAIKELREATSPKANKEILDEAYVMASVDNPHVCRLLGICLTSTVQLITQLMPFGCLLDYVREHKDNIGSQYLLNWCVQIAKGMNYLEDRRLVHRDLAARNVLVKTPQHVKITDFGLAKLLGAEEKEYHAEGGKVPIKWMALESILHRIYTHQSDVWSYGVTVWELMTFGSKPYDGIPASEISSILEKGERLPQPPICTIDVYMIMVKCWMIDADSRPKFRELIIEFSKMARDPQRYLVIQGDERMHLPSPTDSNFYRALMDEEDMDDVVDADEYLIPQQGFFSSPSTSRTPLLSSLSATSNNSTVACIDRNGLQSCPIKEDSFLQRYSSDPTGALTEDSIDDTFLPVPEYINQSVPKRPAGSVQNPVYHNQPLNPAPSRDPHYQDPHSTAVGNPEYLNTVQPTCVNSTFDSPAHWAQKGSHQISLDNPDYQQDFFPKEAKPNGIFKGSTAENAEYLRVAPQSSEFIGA
Chain of ROS (P08922 28-2347): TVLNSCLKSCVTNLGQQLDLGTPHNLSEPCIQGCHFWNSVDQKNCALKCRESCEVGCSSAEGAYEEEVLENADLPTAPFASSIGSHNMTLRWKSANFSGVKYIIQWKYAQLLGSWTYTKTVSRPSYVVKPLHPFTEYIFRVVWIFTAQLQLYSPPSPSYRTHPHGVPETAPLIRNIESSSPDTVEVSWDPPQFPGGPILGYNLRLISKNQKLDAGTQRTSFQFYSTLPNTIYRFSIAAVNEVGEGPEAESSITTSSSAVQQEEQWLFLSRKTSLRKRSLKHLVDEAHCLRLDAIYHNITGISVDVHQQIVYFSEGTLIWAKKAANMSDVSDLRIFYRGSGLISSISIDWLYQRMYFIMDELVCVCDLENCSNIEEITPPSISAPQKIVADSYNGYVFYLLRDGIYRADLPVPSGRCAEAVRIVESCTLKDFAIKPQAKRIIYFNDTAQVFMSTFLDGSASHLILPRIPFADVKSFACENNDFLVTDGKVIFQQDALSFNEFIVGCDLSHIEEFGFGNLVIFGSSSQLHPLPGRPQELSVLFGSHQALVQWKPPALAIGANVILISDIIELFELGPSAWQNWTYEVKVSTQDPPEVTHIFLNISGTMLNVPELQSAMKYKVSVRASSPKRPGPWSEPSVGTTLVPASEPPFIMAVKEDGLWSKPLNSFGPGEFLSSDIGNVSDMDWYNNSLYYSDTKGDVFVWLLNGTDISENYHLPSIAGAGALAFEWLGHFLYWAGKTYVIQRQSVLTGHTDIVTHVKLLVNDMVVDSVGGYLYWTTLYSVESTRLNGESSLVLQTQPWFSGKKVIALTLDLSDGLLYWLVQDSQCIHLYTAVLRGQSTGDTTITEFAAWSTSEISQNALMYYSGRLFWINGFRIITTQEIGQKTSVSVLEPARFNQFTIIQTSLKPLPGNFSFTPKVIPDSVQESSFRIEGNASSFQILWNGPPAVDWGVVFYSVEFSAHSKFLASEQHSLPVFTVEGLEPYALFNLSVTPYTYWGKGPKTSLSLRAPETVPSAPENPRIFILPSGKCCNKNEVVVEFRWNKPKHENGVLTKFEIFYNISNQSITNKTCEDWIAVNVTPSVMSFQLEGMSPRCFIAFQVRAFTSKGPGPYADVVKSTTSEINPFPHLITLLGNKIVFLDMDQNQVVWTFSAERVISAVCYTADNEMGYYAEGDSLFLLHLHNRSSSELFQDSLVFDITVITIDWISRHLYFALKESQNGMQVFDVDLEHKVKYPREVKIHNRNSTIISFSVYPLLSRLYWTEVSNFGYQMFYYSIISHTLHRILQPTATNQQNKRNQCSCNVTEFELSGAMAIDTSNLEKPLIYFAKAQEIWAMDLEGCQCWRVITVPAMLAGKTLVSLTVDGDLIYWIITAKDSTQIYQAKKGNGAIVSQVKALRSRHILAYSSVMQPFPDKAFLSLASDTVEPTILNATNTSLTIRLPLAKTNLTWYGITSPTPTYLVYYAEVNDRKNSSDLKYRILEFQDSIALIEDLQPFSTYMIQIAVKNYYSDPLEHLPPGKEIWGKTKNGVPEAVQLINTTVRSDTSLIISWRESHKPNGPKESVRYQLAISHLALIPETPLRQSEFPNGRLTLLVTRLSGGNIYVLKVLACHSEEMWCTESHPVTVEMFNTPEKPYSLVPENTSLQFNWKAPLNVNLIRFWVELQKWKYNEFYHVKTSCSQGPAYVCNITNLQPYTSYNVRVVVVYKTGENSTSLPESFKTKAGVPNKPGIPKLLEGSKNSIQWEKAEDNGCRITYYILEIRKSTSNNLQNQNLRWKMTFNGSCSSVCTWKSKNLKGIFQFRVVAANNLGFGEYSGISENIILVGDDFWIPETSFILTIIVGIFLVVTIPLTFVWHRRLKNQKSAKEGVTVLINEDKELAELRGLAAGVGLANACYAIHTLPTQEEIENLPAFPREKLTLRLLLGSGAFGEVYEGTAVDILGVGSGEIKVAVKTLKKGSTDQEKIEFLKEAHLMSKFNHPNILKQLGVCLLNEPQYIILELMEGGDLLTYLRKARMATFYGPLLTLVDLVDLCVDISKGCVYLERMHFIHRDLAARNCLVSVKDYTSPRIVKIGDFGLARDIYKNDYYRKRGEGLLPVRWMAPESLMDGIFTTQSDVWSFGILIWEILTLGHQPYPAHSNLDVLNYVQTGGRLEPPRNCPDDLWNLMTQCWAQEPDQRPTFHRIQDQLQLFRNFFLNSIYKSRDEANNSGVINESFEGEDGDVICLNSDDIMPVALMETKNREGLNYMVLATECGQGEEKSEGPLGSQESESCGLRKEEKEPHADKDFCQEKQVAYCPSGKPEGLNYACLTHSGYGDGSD

| Structure (SMILES) | IC50 [1] [µM] | inhibition at 5 µM [1] [%] | IC50 [2] [µM] | EC50 ([3]; Homo sapiens, 24 h) [µM] | EC50 ([4]; 24 h) [µM] | EC50 ([5]; 24 h) [µM] | EC50 ([6]; Homo sapiens, LN-18, 24 h) [µM] | EC50 ([7]; 24 h) [µM] | also measured |
| --- | --- | --- | --- | --- | --- | --- | --- | --- | --- |
| O=C(c1cccc(Nc2ncc(Cl)c(Nc3ccc4ncsc4c3)n2)c1)N1CCCCC1 [drawing 328] | 0.24 | 100 | > 5 |  |  |  |  |  |  |
| O=C(NCC1CCNCC1)c1cccc(Nc2ncc(Cl)c(Nc3ccc4ncsc4c3)n2)c1 [drawing 334] | 0.38 | 100 | > 5 |  |  |  |  |  |  |
| Brc1cccc(Nc2nccc(Nc3ccc4ncsc4c3)n2)c1 [drawing 305] | 0.017 | 90 | > 5 |  |  |  |  |  |  |
| c1cc(Nc2cc(C3CC3)[nH]n2)nc(Nc2ccc(NCc3cc(C4OCCO4)c(C4OCCO4)s3)cc2)n1 [drawing 300] | 1.14 | 79.3 | > 50 |  |  |  |  |  |  |
| O=C(NCC1CCNCC1)c1ccc(Nc2ncc(Cl)c(Nc3ccc4ncsc4c3)n2)cc1 [drawing 331] | 1.01 | 100 | > 5 |  |  |  |  |  |  |
| CN1CCN(C(=O)c2cccc(Nc3ncc(Cl)c(Nc4ccc5ncsc5c4)n3)c2)CC1 [drawing 329] | 0.33 | 100 | > 5 |  |  |  |  |  |  |
| COc1ccc(C2=CCNCC2)cc1Nc1nccc(Nc2ccc3ncsc3c2)n1 [drawing 330] | 0.003 | 100 | 0.802 |  |  |  |  |  |  |
| O=C(O)c1ccc(Nc2ncc(Cl)c(Nc3ccc4ncsc4c3)n2)cc1 [drawing 308] | 0.037 | 101 | 2.4 |  |  |  |  |  |  |
| Nc1ccc(Nc2nccc(Nc3cc(C4CC4)[nH]n3)n2)cc1 [drawing 299] | 0.045 | 100 | 18.9 |  |  |  |  |  |  |
| CC(C)(C)OC(=O)NC1CCN(C(=O)c2ccc(Nc3ncc(Cl)c(Nc4ccc5ncsc5c4)n3)cc2)CC1 [drawing 309] | > 5 | 29.4 | > 5 |  |  |  |  |  |  |
| NCC1CCN(C(=O)c2ccc(Nc3ncc(Cl)c(Nc4ccc5ncsc5c4)n3)cc2)CC1 [drawing 326] | 0.368 | 100 | > 5 |  |  |  |  |  |  |
| NCC1CCN(C(=O)c2cccc(Nc3ncc(Cl)c(Nc4ccc5ncsc5c4)n3)c2)CC1 [drawing 333] | 0.11 | 100 | > 5 |  |  |  |  |  |  |
| c1cc(Nc2nccc(Nc3ccc4ncsc4c3)n2)cc(C2CCNCC2)c1 [drawing 303] | 0.042 | 100 | 4.6 |  |  |  |  |  |  |
| Nc1cccc(C2CCN(c3nccc(Nc4ccc5ncsc5c4)n3)CC2)c1 [drawing 302] | 0.048 | 101 | 4.7 |  |  |  |  |  |  |
| CN1CCN(C(=O)c2ccc(Nc3ncc(Cl)c(Nc4ccc5ncsc5c4)n3)cc2)CC1 [drawing 307] | 0.405 | 92.2 | > 5 |  |  |  |  |  |  |
| C1=C(c2cccc(Nc3nccc(Nc4ccc5ncsc5c4)n3)c2)CCNC1 [drawing 304] | 0.041 | 101 | > 5 |  |  |  |  |  |  |
| NC1CCN(C(=O)c2cccc(Nc3ncc(Cl)c(Nc4ccc5ncsc5c4)n3)c2)CC1 [drawing 332] | 0.165 | 100 | > 5 |  |  |  |  |  |  |
| Cc1cccc(Nc2nccc(Nc3cccc(C(=O)Nc4ccc(F)cc4)c3)n2)c1 [drawing 382] |  |  |  | 14 | 75 | 27 | 6 | 30 |  |
| CCC(C)(C)NC(=O)c1cccc(Nc2nccc(Nc3ccc4ncsc4c3)n2)c1 [drawing 380] |  |  |  | 8 | 46 | 22 | 15 | 15 |  |

| Structure (SMILES) | IC50 [1] [µM] | inhibition at 5 µM [1] [%] | IC50 [2] [µM] | EC50 ([3]; Homo sapiens, 24 h) [µM] | EC50 ([4]; 24 h) [µM] | EC50 ([5]; 24 h) [µM] | EC50 ([6]; Homo sapiens, LN-18, 24 h) [µM] | EC50 ([7]; 24 h) [µM] | also measured |
| --- | --- | --- | --- | --- | --- | --- | --- | --- | --- |
| O=C(c1ccccc1)n1nc(-c2ccco2)nc1NCc1ccc(Cl)cc1 [drawing 432] |  |  |  | > 100 | > 100 | > 100 | > 100 | > 100 |  |
| FC(F)(F)c1cc(-n2c(Cc3cccc4ccccc34)n[nH]c2=S)cc(C(F)(F)F)c1 [drawing 397] |  |  |  |  |  |  |  |  | EC50 [3]: 62 µM; EC50 [4]: > 100 µM; EC50 [5]: 20 µM; EC50 [6]: > 100 µM; EC50 [7]: > 100 µM |
| C[C@H](O)CN(C[C@H](C)O)C(=O)c1cccc(Nc2nccc(Nc3ccc4ncsc4c3)n2)c1 [drawing 420] |  |  |  | 14 | 19 | 21 | 31 | 31 |  |
| Cc1ccc(-n2cc(-c3cccs3)nc2SCc2n[nH]c(=S)n2Cc2ccccc2)cc1 [drawing 393] |  |  |  |  |  |  |  |  | EC50 [3]: > 100 µM; EC50 [4]: > 100 µM; EC50 [5]: 24 µM; EC50 [6]: > 100 µM; EC50 [7]: > 100 µM |
| O=C(NNc1nc2ccccc2nc1Cc1ccccc1)c1cccc(Cl)c1 [drawing 366] |  |  |  | > 100 | > 100 | 25 | 22 | > 100 |  |
| CC(C)(CO)NC(=O)c1cccc(Nc2nccc(Nc3ccc4ncsc4c3)n2)c1 [drawing 408] |  |  |  | 12 | 16 | 17 | 10 | 18 |  |
| Cc1ccc(Cn2c(NCc3nc4ccccc4n3C)nc3ccccc32)cc1 [drawing 355] |  |  |  | > 100 | > 100 | > 100 | > 100 | > 100 |  |
| COc1ccccc1C1C(C#N)=C(N)Oc2[nH]nc(C(F)(F)F)c21 (stereo not shown) |  |  |  |  |  |  |  |  | EC50 [3]: 90 µM; EC50 [4]: 84 µM; EC50 [5]: 80 µM; EC50 [6]: 62 µM; EC50 [7]: > 100 µM |
| O=C(NNc1cc(C(F)(F)F)ccc1Cl)c1cccnc1Oc1ccccc1 [drawing 390] |  |  |  | 59 | > 100 | 96 | 58 | > 100 |  |
| O=c1c(O)c(-c2ccc(O)c(O)c2)oc2cc(O)cc(O)c12 [drawing 406] |  |  |  | 21 | > 100 | 36 | 24 | 33 |  |
| NC(=O)c1c(NC(=O)Nc2ccccc2)sc2c1CCCC2 [drawing 401] |  |  |  | 16 | 27 | 80 | 38 | 34 |  |
| O=C(NCC1CCCCC1)c1cccc(Nc2nccc(Nc3ccc4ncsc4c3)n2)c1 [drawing 407] |  |  |  | > 100 | > 100 | 33 | 87 | > 100 |  |
| O=C(NC[C@H]1Cc2cc(-c3cncnc3)cc(Cl)c2O1)c1cccc(Cn2cccn2)c1 |  |  |  | > 100 | > 100 | > 100 | > 100 | > 100 |  |
| Cn1c(=O)c2c(nc3n(CCO)c(-c4ccccc4)cn23)n(C)c1=O [drawing 402] |  |  |  | > 100 | > 100 | > 100 | > 100 | > 100 |  |
| CC(C)(C)c1cc(C(=O)NNc2cccc(Cl)c2)n(Cc2ccccc2)n1 [drawing 389] |  |  |  | > 100 | > 100 | 50 | > 100 | > 100 |  |
| O=C(NCCc1ccccc1)c1cccc(Nc2nccc(Nc3ccc4ncsc4c3)n2)c1 [drawing 418] |  |  |  | 15 | 38 | 13 | 11 | 24 |  |
| Nc1ccc(Nc2nccc(Nc3cc(C4CC4)[nH]n3)n2)cc1 [drawing 436] |  |  |  | 0.4 | 1.9 | 5 | 10 | 30 |  |
| CN1CCN(C(=O)c2cccc(Nc3nccc(Nc4ccc5ncsc5c4)n3)c2)CC1 [drawing 415] |  |  |  | 11 | 32 | 22 | 14 | 39 |  |
